Test results reported in patent US9174966B2, “Crystalline forms of 6-(1H-imidazol-1-yl)-2-phenylquinazoline” (ROTTAPHARM S.P.A., priority 2009, dated 2015).
Values after ≈ are worked out from the molar mass of the structure shown. “Also recorded” adds a separate entry of the source. Read-outs that look alike come from different tables or passages of the source.

Assays:
[1] = BCS (Biopharmaceutical Classification System) classification; type: physicochemical; conditions: high permeability, low solubility
From the text: To take these two factors into account, a classification of drug products was introduced, known as BCS (Biopharmaceutical Classification System) (G L Amidon et al., Pharm. Res. 1995, 12: 413-419). Since it is endowed with good permeability and low solubility, 6-(1H-imidazol-1-yl)-2-phenylquinazoline falls into class II (high permeability, low solubility) of the BCS system. For the drug products of this class, the solubility is fundamental in determining their absorption. The preparation of pharmaceutically acceptable salts generally represents a means for increasing the solubility of sparingly soluble products, and, in the case of products endowed with good permeability, is a suitable means for increasing their bioavailability.

[2] = Pharmacokinetics in rats, oral versus intravenous administration; type: in vivo; conditions: for half-life: read-out: T½; for Tmax: read-out: Tmax (converted)
Experimental: The samples are analysed by HPLC-MS to determine the content of 6-(1H-imidazol-1-yl)-2-phenylquinazoline, using diphenylhydramine hydrochloride as internal standard. The pharmacokinetic parameters measured are summarized hereinbelow: it is noted that, despite the fact that the polymorph under consideration is of low solubility, the bioavailability (F %) is entirely acceptable.
The pharmacokinetic parameters measured are summarized hereinbelow: it is noted that the salt under consideration has optimum bioavailability (F %). […]

[3] = Stability to mechanical stress (milling, XRPD); type: physicochemical; conditions: Retsch MM 200 mill, 50 Hz, 5 min.
Experimental: 6-(1H-Imidazol-1-yl)-2-phenylquinazoline, polymorph A, was subjected to milling by means of a Retsch MM 200 mill, at 50 Hz for 5 min., and the product thus obtained was analysed by XRPD.
6-(1H-Imidazol-1-yl)-2-phenylquinazoline succinate form A, was subjected to milling by means of a Retsch MM 200 mill, at 50 Hz for 5 min., and the product thus obtained was subjected to XRPD analysis.
6-(1H-Imidazol-1-yl)-2-phenylquinazoline L-tartrate dihydrate, form A, was subjected to milling by means of a Retsch MM 200 mill, at 50 Hz for 5 min., and the product thus obtained was subjected to XRPD analysis.
6-(1H-Imidazol-1-yl)-2-phenylquinazoline maleate, form A, was subjected to milling by means of a Retsch MM 200 mill, at 50 Hz for 5 min., and the product thus obtained was subjected to XRPD analysis.

physchem = conditions: 37 °C, pH 2, aqueous buffer, thermodynamic from solid
Experimental: A sample of 6-(1H-imidazol-1-yl)-2-phenylquinazoline, polymorph A (150 mg), is stirred in a phosphate buffer solution at pH 7.4 (8 mL), at 500 rpm, so as to obtain a suspension, for 24 hours at 37° C. The suspension is then filtered and the concentration of the dissolved product is measured by reading the UV absorbance at 260 nm. […] A sample of 6-(1H-imidazol-1-yl)-2-phenylquinazoline, polymorph A (250 mg), is stirred in a phosphate buffer solution at pH 2 (2 mL), at 500 rpm, so as to obtain a suspension, for 24 hours at 37° C. The suspension is then filtered and the concentration of the dissolved product is measured by reading the UV absorbance at 260 nm.
A sample of 6-(1H-imidazol-1-yl)-2-phenylquinazoline, form B, (50 mg), is stirred in a phosphate buffer solution at pH 7.4 (2 mL), at 500 rpm, so as to obtain a suspension, for 24 hours at 37° C. The suspension is then filtered and the concentration of the dissolved product is measured by reading the UV absorbance at 260 nm.
A sample of 6-(1H-imidazol-1-yl)-2-phenylquinazoline, form C (30 mg), is stirred in a phosphate buffer solution at pH 7.4 (2 mL), at 500 rpm, so as to obtain a suspension, for 24 hours at 37° C. The suspension is then filtered and the concentration of the dissolved product is measured by reading the UV absorbance at 260 nm. […]

[4] = Thermal stability of the crystalline form (XRPD); conditions: XRPD
[5] = Solubility in aqueous solution of NaCl 0.9% (UV absorbance at 260 nm); type: physicochemical; conditions: aqueous solution of NaCl 0.9%, 37 °C, saline or isotonic, thermodynamic from solid, aqueous NaCl 0.9%, stirred 500 rpm, 24 hours at 37° C.
Experimental: The solubility is 0.6 mg/mL. […]
The sample of 6-(1H-imidazol-1-yl)-2-phenylquinazoline phosphate, form A, is stirred in an aqueous solution of NaCl 0.9%, at 500 rpm, so as to obtain a suspension (50 mg in 2 mL), for 24 hours at 37° C.
(§1) The sample of 6-(1H-imidazol-1-yl)-2-phenylquinazoline phosphate, form A, is stirred in an aqueous solution of NaCl 0.9%, at 500 rpm, so as to obtain a suspension (70 mg in 2 mL), for 24 hours at 37° C. […] The dissolution rate is measured by adding 2 mg of product to 40 mL of water at 37° C., stirring at 500 rpm, and measuring the absorbance at 260 nm every 0.05 min; the dissolution rate is found to be 1.9×10^−4 gr/min.

[6] = Dissolution rate in water at 37° C.; type: physicochemical; conditions: 2 mg of product in 40 mL of water at 37° C., 500 rpm, absorbance at 260 nm
Experimental: as §1

[7] = Stability to moisture, DVS analysis (Differential Vapour Sorption); type: physicochemical; conditions: 25° C., hydration/dehydration cycle; tartrate dihydrate
Experimental: The sample placed on a microbalance is subjected, in a chamber of controlled humidity, at 25° C., to a cycle of hydration (increasing humidity, red line) and of dehydration (decreasing humidity, blue line).
The sample of 6-(1H-imidazol-1-yl)-2-phenylquinazoline succinate form A was subjected to DVS analysis (as described in Example 32).
The sample of 6-(1H-imidazol-1-yl)-2-phenylquinazoline L-tartrate dihydrate, form A, was subjected to DVS analysis.
The sample of 6-(1H-imidazol-1-yl)-2-phenylquinazoline maleate, form A, was subjected to DVS analysis.

[8] = Hygroscopicity noted for the isolated crystalline product; type: physicochemical; conditions: as noted in the preparation example
[9] = rat, blood, iv, 5 mg/kg, IV, 5 mg/kg
[10] = rat, blood, po, 10 mg/kg, OS (oral), 10 mg/Kg

Structure (SMILES): c1ccc(-c2ncc3cc(-n4ccnc4)ccc3n2)cc1 [6-(1H-imidazol-1-yl)-2-phenylquinazoline]
- BCS class [1]: class II

Structure (SMILES): c1ccc(-c2ncc3cc(-n4ccnc4)ccc3n2)cc1 [polymorph A, 6-(1H-imidazol-1-yl)-2-phenylquinazoline]
- V ([2]; IV, 5 mg/kg): 1.28 L/kg
- F (bioavailability) ([2]; OS 10 mg/Kg compared with IV 5 mg/kg): 50.3%
- CL ([2]; OS (oral), 10 mg/Kg): 22 mL/min/kg
- V ([2]; OS (oral), 10 mg/Kg): 1.60 L/kg
- clearance ([2]; rat, blood, iv, 5 mg/kg): 21 mL/min/kg
- half-life [2, 9]: 42.1 min
- Tmax [2, 10]: 100 min
- half-life [2, 10]: 45.4 min
- stability to milling [3]: without any contamination with other crystalline forms, and no appreciable formation of amorphous material
- solubility at 24 h (physchem): 1800 µg/mL (≈ 6.61 mM)
- thermal stability of crystalline form ([4]; 40° C., RH 85%, 5 days (at least 5 days for polymorph A)): stable
- thermal stability of crystalline form ([4]; 90° C., 12 hours (or at least 12 hours)): stable

Structure (SMILES): O=C(O)C(O)C(O)C(=O)O.c1ccc(-c2ncc3cc(-n4ccnc4)ccc3n2)cc1 [tartrate form A, 6-(1H-imidazol-1-yl)-2-phenylquinazoline (L) tartrate dihydrate]
- solubility at 24 h [5]: 2500 µg/mL
- dissolution rate [6]: 1.04×10^−3 gr/min
- V ([2]; IV, 5 mg/kg): 1.4 L/kg
- CL ([2]; OS (oral), 10 mg/Kg): 17 mL/min/kg
- V ([2]; OS (oral), 10 mg/Kg): 5.47 L/kg
- bioavailability ([2]; rat, blood, OS 10 mg/Kg compared with IV 5 mg/kg, read-out: F (bioavailability)): 81%
- clearance ([2]; rat, blood, iv, 5 mg/kg): 23 mL/min/kg
- half-life [2, 9]: 47.7 min
- Tmax [2, 10]: 100 min
- half-life [2, 10]: 47.2 min
- stability to milling [3]: has not undergone any changes of crystalline form, and a slight increase in the presence of amorphous product is revealed
- hygroscopicity (DVS) [7]: not hygroscopic in the range 25-70% RH; also recorded: point of inflection at 75% RH; also recorded: highly hygroscopic only at values of greater than 80% RH
- hygroscopicity of the isolated product [8]: non-hygroscopic
- thermal stability of crystalline form ([4]; 40° C., 70% RH, 7 days): stable
- thermal stability of crystalline form ([4]; 90° C., 12 hours (or at least 12 hours), tartrate dihydrate): gives rise to the amorphous form
